Measured values from patent US9475815B2, “Substituted benzothienyl-pyrrolotriazines and uses thereof” (Bayer Intellectual Property GmbH, priority 2012, dated 2016).
pIC50: −log10 of the molar value. Counter-ions that a name gives are not always drawn.

Legend:
human FGFR-3 = human FGFR-3 (Homo sapiens (Human), UniProt P22607); experiment: FGFR-3 kinase assay (TR-FRET); assay type: biochemical; conditions: 10 μM ATP, 15 min pre-incubation with enzyme
human mTOR = human mTOR (Homo sapiens (Human), UniProt P42345); experiment: mTOR kinase assay (TR-FRET, for comparative purposes); assay type: biochemical; conditions: read-out: mTOR % inhibition @ 1 μM, 1 μM test compound, 40 μM ATP, mean values
[1] = system: Human umbilical vein endothelial cells (HUVEC); experiment: Inhibition of growth factor-mediated cell proliferation (hFGF-2); assay type: cell-based; conditions: Homo sapiens, HUVEC, 72 h, 72 h exposure, hFGF-2 stimulated; from averaged pIC50 values
Description: Human umbilical vein endothelial cells (HUVEC) were obtained from Cellsystems (FC-0003) and grown in Vasculife VEGF complete medium (Cellsystems, LL-1020) containing 2% fetal bovine serum (FBS) at 37° C. and 5% CO2. The cells were used for proliferation assays up to passage 7.
The HUVEC cells were harvested using accutase (PAA, L11-007) and seeded in columns 2 to 12 of 96-well plates (Falcon MICROTEST tissue culture plate 96-well flat bottom, BD 353075, or μCLEAR-PLATE, black, 96-well, Greiner Bio-One, No. 655090) at a cell density of 2500 cells/well in 100 μl Vasculife VEGF complete medium with column 1 remaining empty as blank. Cells were allowed to incubate at 37° C. and 5% CO2 for at least 6 h. Then, the cells were washed once with PBS and starved overnight in Vasculife basal medium (Cellsystems, LM-0002) containing heparin, ascorbate and L-glutamine (components of the Vasculife Life Factors Kit, Cellsystems, LL-1020) as well as 0.2% FBS.
After about 18 h, the starving medium was discarded, and the cells were exposed for 72 h to 9 consecutive log or half-log concentrations of test compound in the range of 10 pM to 30 μM and to 5, 10 or 20 ng/ml hFGF-2 (recombinant human FGF basic, R&D Systems, 233-FB) in 100 μl starving medium. 10 mM stock solutions of test compounds in DMSO were diluted to 200× final concentration in DMSO resulting in a final DMSO concentration of 0.5% in all wells. Controls consisted of cells grown in starving medium only and of cells grown in hFGF-2 containing starving medium with 0.5% DMSO. To determine cell proliferation, 5 μl Alamar Blue solution (Biosource, DAL1100) was added to each well (1:20 dilution), and the cells were allowed to incubate for further 4 h at 37° C. and 5% CO2 before measuring fluorescence (ex. 535 nm, em. 595 nm) with a Spectrafluor Plus Tecan plate reader (XFLUOR4 version 4.20). In some experiments, an ATP Determination Kit (BIAFFIN GmbH, LBR-T100) was used according to the manufacturer's instructions. In each experiment, samples were assayed in triplicate, and the standard deviations were determined GraphPad Prism 5 software was used to analyze the data and to obtain IC50 values. All test compounds were assayed 2 to 10 times in independent experiments and similar results were obtained.

human FGFR-1 = human FGFR-1 (Homo sapiens, UniProt P11362); experiment: FGFR-1 high ATP kinase assay (TR-FRET)
Sequence of human FGFR-1 (P11362 22-822 limits assumed): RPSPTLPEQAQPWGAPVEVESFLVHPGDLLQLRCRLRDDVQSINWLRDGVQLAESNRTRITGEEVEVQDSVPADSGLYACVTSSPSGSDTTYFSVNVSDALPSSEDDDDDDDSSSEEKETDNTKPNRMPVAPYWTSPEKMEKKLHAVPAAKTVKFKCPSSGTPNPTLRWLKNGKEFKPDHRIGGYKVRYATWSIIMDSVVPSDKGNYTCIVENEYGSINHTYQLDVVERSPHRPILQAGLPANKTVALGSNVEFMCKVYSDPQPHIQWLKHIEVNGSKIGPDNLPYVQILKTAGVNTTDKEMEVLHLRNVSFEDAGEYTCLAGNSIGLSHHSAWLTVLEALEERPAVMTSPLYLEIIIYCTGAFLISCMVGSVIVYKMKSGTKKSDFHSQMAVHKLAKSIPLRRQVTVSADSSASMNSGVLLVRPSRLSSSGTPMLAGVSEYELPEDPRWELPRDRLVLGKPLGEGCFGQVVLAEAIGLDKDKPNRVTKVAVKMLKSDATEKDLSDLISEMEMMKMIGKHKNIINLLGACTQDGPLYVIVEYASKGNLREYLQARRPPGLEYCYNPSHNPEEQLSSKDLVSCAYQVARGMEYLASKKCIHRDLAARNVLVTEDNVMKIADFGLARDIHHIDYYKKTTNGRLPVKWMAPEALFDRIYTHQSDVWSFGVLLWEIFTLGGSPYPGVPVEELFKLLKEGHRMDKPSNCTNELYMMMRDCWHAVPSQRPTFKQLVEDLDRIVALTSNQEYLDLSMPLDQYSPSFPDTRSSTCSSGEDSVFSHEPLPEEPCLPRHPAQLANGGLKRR

Sequence of human FGFR-3 (P22607 397-806): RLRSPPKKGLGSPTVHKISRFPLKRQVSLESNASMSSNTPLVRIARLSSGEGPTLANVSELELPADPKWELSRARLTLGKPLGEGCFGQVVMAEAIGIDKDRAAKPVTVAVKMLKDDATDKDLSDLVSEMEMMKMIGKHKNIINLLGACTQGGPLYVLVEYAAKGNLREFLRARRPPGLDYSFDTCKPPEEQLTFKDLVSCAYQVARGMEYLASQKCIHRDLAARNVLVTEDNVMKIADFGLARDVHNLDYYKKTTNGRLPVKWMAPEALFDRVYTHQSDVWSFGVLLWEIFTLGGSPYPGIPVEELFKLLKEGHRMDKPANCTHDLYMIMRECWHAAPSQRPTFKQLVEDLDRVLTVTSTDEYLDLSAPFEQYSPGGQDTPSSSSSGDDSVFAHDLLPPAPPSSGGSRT
Sequence of human mTOR (P42345 1360-2549): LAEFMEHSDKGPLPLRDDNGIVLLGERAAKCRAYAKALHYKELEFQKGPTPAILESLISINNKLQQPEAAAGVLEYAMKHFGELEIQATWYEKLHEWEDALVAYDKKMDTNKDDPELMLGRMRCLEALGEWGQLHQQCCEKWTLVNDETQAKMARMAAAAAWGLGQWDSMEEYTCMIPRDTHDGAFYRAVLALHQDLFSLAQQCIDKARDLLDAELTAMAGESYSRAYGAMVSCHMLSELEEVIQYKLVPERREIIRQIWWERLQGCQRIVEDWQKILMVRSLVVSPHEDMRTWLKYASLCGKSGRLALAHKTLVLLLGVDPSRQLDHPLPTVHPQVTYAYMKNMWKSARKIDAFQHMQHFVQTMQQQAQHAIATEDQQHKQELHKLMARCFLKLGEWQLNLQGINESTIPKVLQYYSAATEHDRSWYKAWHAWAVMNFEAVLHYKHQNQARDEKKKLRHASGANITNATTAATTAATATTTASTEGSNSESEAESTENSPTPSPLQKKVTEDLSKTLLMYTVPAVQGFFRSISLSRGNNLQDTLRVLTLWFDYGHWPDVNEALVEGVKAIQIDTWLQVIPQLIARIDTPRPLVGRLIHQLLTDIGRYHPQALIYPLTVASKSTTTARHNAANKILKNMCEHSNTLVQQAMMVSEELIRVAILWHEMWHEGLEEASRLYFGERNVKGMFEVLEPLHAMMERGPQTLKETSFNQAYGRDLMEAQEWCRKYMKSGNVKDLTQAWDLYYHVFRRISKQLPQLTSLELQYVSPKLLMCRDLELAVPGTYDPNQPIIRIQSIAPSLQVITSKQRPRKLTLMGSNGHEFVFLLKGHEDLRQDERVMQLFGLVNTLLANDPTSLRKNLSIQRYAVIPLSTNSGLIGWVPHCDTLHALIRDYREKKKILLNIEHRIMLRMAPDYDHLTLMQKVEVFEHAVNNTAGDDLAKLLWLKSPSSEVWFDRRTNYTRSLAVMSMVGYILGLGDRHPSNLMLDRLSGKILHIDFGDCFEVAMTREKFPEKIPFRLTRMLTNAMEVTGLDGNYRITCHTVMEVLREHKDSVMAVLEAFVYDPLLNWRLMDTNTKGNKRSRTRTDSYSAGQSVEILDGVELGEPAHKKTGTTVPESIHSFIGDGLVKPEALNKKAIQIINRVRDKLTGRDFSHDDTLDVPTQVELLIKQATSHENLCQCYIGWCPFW

Row | SMILES | pIC50 (human FGFR-3) | inhibition at 1 µM (human mTOR) | pIC50 [1] | pIC50 (human FGFR-1)
1 | COc1cc(C)cc2cc(-c3cc(C(=O)NC4CCNC4=O)n4ncnc(N)c34)sc12 (racemic) [Example 98, rac-4-Amino-5-(7-methoxy-5-methyl-1-benzothiophen-2-yl)-N-(2-oxopyrrolidin-3-yl)pyrrolo-[2,1-f][1,2,4]triazine-7-carboxamide hydrochloride] | 7.88 | 24.6% | 7.32 | 8.05
2 | COc1cc(C)cc2cc(-c3cc(CN4CC[C@](C)(N)C4)n4ncnc(N)c34)sc12 [Example 5, 7-{[(3S)-3-Amino-3-methylpyrrolidin-1-yl]methyl}-5-(7-methoxy-5-methyl-1-benzothiophen-2-yl)pyrrolo[2,1-f][1,2,4]triazin-4-amine trihydrochloride] | 8.13 | 18.8% | 7.32 | 8.96
3 | COc1cc(C)cc2cc(-c3cc(CN[C@@H]4CCNC4=O)n4ncnc(N)c34)sc12 [Example 6, (3R)-3-({[4-Amino-5-(7-methoxy-5-methyl-1-benzothiophen-2-yl)pyrrolo[2,1-f][1,2,4]triazin-7-yl]methyl}amino)pyrrolidin-2-one dihydrochloride] | 7.66 | 33.5% | 7.66 | 7.70
4 | COc1cc(C)cc2cc(-c3cc(CN4CC[C@H](N)C4)n4ncnc(N)c34)sc12 [Example 9, 7-{[(3S)-3-Aminopyrrolidin-1-yl]methyl}-5-(7-methoxy-5-methyl-1-benzothiophen-2-yl)pyrrolo[2,1-f][1,2,4]triazin-4-amine] | 8.13 | 24.2% | 6.84 | 8.33
5 | COc1cc(C)cc2cc(-c3cc(CN4CCOCC4)n4ncnc(N)c34)sc12 [Example 10, 5-(7-Methoxy-5-methyl-1-benzothiophen-2-yl)-7-(morpholin-4-ylmethyl)pyrrolo[2,1-f][1,2,4]-triazin-4-amine] | 7.11 | 28.1% | 7.68 | 7.02
6 | COc1cc(C)cc2cc(-c3cc(CN[C@H]4CCNC4=O)n4ncnc(N)c34)sc12 [Example 14] | 7.48 | 30.6% | 7.49 | 7.36
7 | COc1cc(C)cc2cc(-c3cc(CN4CC[C@H](N(C)C)C4)n4ncnc(N)c34)sc12 [Example 15] | 7.64 | 25.2% | 6.74 | 7.95
8 | CCN[C@H]1CCN(Cc2cc(-c3cc4cc(C)cc(OC)c4s3)c3c(N)ncnn23)C1 [Example 16] | 7.81 | 26.7% | 7.10 | 7.81
9 | COc1cc(C)cc2cc(-c3cc(CN4CCNC(C(=O)N(C)C)C4)n4ncnc(N)c34)sc12 (stereo not shown) [Example 17] | 7.43 | 34.3% | 6.82 | 7.56
10 | COc1cc(C)cc2cc(-c3cc(CNCC(N)=O)n4ncnc(N)c34)sc12 [Example 18] | 8.11 | 39.1% | 6.81 | 7.58
11 | CCN(CC)C1CCN(Cc2cc(-c3cc4cc(C)cc(OC)c4s3)c3c(N)ncnn23)C1 (stereo not shown) [Example 19] | 7.57 | 25.9% | 6.56 | 7.83
12 | COc1cc(C)cc2cc(-c3cc(CN4CCNC(=O)CC4)n4ncnc(N)c34)sc12 [Example 20] | 7.61 | 35.6% | 6.96 | 7.26
13 | COc1cc(C)cc2cc(-c3cc(CN4CCC(NCC(C)O)C4)n4ncnc(N)c34)sc12 (stereo not shown) [Example 22] | 7.38 | 14% | 6.98 | 8.03
14 | CNC1CCN(Cc2cc(-c3cc4cc(C)cc(OC)c4s3)c3c(N)ncnn23)C1 (stereo not shown) [Example 41] |  | 25.9% | 7.31 | 8.14
15 | COc1cc(C)cc2cc(-c3cc(CN4CCC(N(C)C)C4)n4ncnc(N)c34)sc12 (stereo not shown) [Example 42] |  | 36.3% | 6.89 | 7.87
16 | COc1cc(C)cc2cc(-c3cc(CN4CCNC(C)(C)C4)n4ncnc(N)c34)sc12 [Example 45] |  | 25.9% | 6.66 | 7.74
17 | COc1cc(C)cc2cc(-c3cc(CN4CCC[C@H](N)C4)n4ncnc(N)c34)sc12 [Example 56] | 7.65 | 32.1% | 6.77 | 7.76
18 | COc1cc(C)cc2cc(-c3cc(CN4CCCC(N(C)C)C4)n4ncnc(N)c34)sc12 (stereo not shown) [Example 86] | 8.02 | 33% | 7.43 | 8.34
19 | COc1cc(C)cc2cc(-c3cc(CN4CCN(C(=O)CO)CC4)n4ncnc(N)c34)sc12 [Example 96, 1-(4-{[4-Amino-5-(7-methoxy-5-methyl-1-benzothiophen-2-yl)pyrrolo[2,1-f][1,2,4]triazin-7-yl]-methyl}piperazin-1-yl)-2-hydroxyethanone] | 7.92 | 37.9% | 7.14 | 7.90
20 | COc1cc(C)cc2cc(-c3cc(C(=O)N4CCNCC4)n4ncnc(N)c34)sc12 [Example 99, [4-Amino-5-(7-methoxy-5-methyl-1-benzothiophen-2-yl)pyrrolo[2,1-f][1,2,4]triazin-7-yl]-(piperazin-1-yl)methanone dihydrochloride] | 7.18 | 9.9% | 6.57 | 7.04
21 | COc1cc(C)cc2cc(-c3cc(C(=O)N4CCC[C@](C)(N)C4)n4ncnc(N)c34)sc12 [Example 105] | 7.59 | 17.1% | 6.86 | 7.69
22 | COc1cc(C)cc2cc(-c3cc(CNC(=O)CN)n4ncnc(N)c34)sc12 [Example 106, N-{[4-Amino-5-(7-methoxy-5-methyl-1-benzothiophen-2-yl)pyrrolo[2,1-f][1,2,4]triazin-7-yl]-methyl}glycinamide dihydrochloride] | 7.20 | 5.6% | 7.70 | 7.60
